Drawing on ChEMBL document CHEMBL1131444, “The 16,17-double bond is needed for irreversible inhibition of human cytochrome p45017alpha by abiraterone (17-(3-pyridyl)androsta-5, 16-dien-3beta-ol) and related steroidal inhibitors” (J Med Chem, 1998), this text covers IC50 for five compounds.

Molecules are shown by their SMILES. pIC50: −log10 of the molar value.

The assay addresses T1, Steroid 17-alpha-hydroxylase/17,20 lyase (Homo sapiens, UniProt P05093).
T1 sequence (P05093 whole entry): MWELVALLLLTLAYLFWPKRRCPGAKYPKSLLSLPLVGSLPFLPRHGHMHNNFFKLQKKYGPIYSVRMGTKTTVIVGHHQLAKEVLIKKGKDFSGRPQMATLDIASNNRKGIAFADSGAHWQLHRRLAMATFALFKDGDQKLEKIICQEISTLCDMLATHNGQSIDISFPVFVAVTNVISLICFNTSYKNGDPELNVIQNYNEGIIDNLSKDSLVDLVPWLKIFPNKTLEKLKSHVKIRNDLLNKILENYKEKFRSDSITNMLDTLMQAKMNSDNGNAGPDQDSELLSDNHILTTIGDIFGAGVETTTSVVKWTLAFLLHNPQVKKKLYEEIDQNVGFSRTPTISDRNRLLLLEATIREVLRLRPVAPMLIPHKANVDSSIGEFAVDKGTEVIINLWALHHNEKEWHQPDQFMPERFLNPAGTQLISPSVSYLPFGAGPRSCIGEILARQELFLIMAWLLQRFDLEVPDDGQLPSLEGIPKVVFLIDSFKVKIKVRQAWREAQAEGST
Kind of assay: Inhibition of human progesterone 17-alpha-hydroxylase.
In turn, `C[C@]12CCC(=O)C=C1CCC1C2CC[C@]2(C)C(c3cccnc3)=CCC12` (stereo not given in full) showed a pIC50 of 8.52.
Next, `C[C@]12CC[C@H](O)C[C@@H]1CC[C@@H]1[C@@H]2CC[C@]2(C)[C@@H](c3cccnc3)CC[C@@H]12`: 7.13; `C[C@]12CC[C@H](O)C[C@@H]1CC[C@@H]1[C@@H]2CC[C@]2(C)C(c3cccnc3)CC[C@@H]12` (stereo not given in full): 8.30.
For the compound `C[C@]12CC[C@H](O)C[C@@H]1CC[C@@H]1[C@@H]2CC[C@@]2(C)[C@H]1C[C@H]1O[C@]12c1cccnc1`, the pIC50 is 6.59.
As for `C[C@]12CCC3C(CC=C4C[C@@H](O)CC[C@@]43C)C1CCC2c1ccncc1` (single isomer, unassigned), the pIC50 is 7.57.

Broadly, the pIC50 is −log10 of the IC50, conventionally taken in molar units.
